What follows are molecules tested against T1, VLA-4 (Homo sapiens, UniProt P05556+P13612) (assay: Adhesion of Jurkat cells to immobilized VCAM-1 (domains 1-3)). Settings: adhesion of CFSE-labeled Jurkat cells to recombinant human VCAM-1 (domains 1-3) coated plates; compounds as yielded by solid phase synthesis, purity about 40-90%.
T1 construct: host or cells: Jurkat clone E6-1
T1 sequence (P13612 34-1032): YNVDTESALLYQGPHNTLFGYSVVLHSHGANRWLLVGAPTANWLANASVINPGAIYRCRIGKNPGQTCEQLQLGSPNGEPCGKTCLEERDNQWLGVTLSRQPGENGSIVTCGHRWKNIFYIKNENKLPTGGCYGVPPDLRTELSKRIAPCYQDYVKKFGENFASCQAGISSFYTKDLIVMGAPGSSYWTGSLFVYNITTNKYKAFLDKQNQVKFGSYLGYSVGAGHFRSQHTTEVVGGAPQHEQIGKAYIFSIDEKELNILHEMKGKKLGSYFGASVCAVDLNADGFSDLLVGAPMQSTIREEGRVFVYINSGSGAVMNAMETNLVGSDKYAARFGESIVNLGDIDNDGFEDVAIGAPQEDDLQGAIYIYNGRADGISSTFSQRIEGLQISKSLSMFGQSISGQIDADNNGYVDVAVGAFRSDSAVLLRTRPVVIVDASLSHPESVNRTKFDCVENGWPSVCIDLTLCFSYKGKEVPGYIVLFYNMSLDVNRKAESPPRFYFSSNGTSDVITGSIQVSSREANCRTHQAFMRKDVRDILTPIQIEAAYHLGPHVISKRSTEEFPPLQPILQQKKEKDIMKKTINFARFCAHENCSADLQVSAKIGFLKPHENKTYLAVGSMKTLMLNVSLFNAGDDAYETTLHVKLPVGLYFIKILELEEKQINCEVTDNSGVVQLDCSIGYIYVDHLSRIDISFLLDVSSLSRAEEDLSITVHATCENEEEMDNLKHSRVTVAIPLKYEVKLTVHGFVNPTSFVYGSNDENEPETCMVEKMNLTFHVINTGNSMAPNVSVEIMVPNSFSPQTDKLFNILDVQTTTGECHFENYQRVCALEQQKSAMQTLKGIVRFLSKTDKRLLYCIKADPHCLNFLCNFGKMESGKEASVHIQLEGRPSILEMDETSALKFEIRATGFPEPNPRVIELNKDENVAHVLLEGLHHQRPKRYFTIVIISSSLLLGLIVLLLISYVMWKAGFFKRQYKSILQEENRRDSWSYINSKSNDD
T1 sequence (P05556 21-798): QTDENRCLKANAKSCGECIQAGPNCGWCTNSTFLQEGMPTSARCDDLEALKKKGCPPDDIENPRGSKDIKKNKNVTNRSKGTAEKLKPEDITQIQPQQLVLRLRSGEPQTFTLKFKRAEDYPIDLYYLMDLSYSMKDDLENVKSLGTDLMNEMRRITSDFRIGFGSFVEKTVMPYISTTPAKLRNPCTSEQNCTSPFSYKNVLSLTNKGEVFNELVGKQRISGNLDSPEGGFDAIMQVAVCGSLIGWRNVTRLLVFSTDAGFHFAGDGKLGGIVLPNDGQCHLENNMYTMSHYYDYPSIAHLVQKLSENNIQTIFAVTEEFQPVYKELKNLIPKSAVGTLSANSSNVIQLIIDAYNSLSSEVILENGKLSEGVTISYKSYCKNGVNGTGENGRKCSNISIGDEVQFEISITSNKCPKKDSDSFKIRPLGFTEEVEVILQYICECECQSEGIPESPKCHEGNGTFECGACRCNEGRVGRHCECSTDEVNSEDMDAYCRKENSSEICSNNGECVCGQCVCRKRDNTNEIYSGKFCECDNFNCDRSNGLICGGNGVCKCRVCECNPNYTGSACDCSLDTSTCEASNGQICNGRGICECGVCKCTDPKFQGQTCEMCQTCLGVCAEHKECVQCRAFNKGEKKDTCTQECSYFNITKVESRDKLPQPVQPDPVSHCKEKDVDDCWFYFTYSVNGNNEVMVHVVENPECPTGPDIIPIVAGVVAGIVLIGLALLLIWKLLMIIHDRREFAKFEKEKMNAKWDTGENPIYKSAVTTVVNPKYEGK
Type: cell-based
Design: scale not given here
Protocol: In Vitro Assay: Adhesion of Jurkat Cells to Immobilized VCAM-1 (Domains 1-3).
Preparation of Fluorescence Labeled Jurkat Cells:
Jurkat cells (American Type Culture Collection, Clone E6-1, ATCC TIB-152) were cultured in RPMI 1640 medium (Nikken Bio Medical Laboratory, CM1101) supplemented with 10% fetal bovine serum (Hyclone, A-1119-L), 100 U/ml penicilin (Gibco BRL, 15140-122) and 100 μg/ml streptomycin (Gibco BRL, 15140-122) in a humidified incubator at 37° C. with 5% CO2.
Jurkat cells were incubated with phosphate balanced solution (PBS, Nissui, 05913) containing 25 μM of 5(-and-6)-carboxyfluorescein diacetate, succinimidyle ester (CFSE, Dojindo Laboratories, 345-06441) for 20 min at room temperature while gently swirling every 5 min. After centrifugation at 1000 rpm for 5 min, the cell pellet was resuspended with adhesion assay buffer at a cell density of 2×10^6 cells/ml. The adhesion assay buffer was composed of 24 mM Tris-HCl (pH 7.4), 137 mM NaCl, 27 mM KCl, 4 mM glucose, 0.1% bovine serum albumin (BSA, Sigma, A9647) and 2 mM MnCl2.
Preparation of VCAM-1 (Extracellular Domains 1-3):
Complementary DNA (cDNA) encoding 7-domain form of VCAM-1 (GenBank accession #M60335) was obtained using Rapid-Screen™ cDNA library panels (OriGene Technologies, Inc) at Takara Gene Analysis Center (Shiga, Japan). The primers used were 5′-CCAAGGCAGAGTACGCAAAC-3′ (sence) and 5′-TGGCAGGTATTATTAAGGAG-3′ (antisense). PCR amplification of the 3-domain VCAM-1 cDNA was perform using Pfu DNA polymerase (Stratagene) with the following sets of primers: (U-VCAMd1-3) 5′-CCATATGGTACCTGATCAATTTAAAATCGAGACCACCCCAGAA-3′; (L-VCAMd1-3) 5′-CCATATAGCAATCCTAGGTCCAGGGGAGATCTCAACAGTAAA-3′. PCR cycle was 94° C. for 45 sec, 55° C. for 45 sec, 72° C. for 2 min, repeating 15 cycles. After the purification of the PCR product, the fragment was digested with KpnI-AvrII. The digested fragment was ligated into pBluescript IISK(−) (Strategene), which was linealized by digesting with KpnI-XhoI. The ligation was followed by transformation to a Dam/Dcm methylase-free E. coli strain SCS110 (Strategene) to create the donor plasmid pH7. To direct VCAM-1 molecule into the insect cell secretory pathway, the VCAM-1 coding sequence was fused to signal peptide sequence of honeybee melittin. The resulting melittin-VCAM fusion was placed in correct orientation to the baculoviris polyhedrin promoter. Baculovirus transfer vector containing first 3-domain form VCAM-1 (pH10) was constructed by ligation of 0.9 kb fragment from AvrII/Klenow/BclI digests of pH7 into SalI/Klenow/BamHI digests of pMelBacB (Invitrogen). Recombinant baculovirus was generated by using Bac-N-Blue™ Transfection kit (Invitrogen) according to the manufacture's instruction. The recombinant virus was amplified by infection to High-Five™ insect cells for 5-6 days, and virus titer was determined by plaque assay.
High-Five™ insect cells were pelleted in a 225 ml conical tube by centrifugation at 1000 rpm for 5 min After discarding the supernatant, the pellet was resuspended in 1.5×10^9 pfu (MOI=5) of high-titer virus solution, followed by incubation for 1.5 hours at room temperature. The cells were pelleted again and washed once in fresh Express Five™ serum free medium. The cells were pelleted again and finally, resuspended in 200 ml of fresh Express Five™ medium, transferred to a 1,000 ml shaker flask, and incubated in a shaker at 27° C., 130 rpm, for 48 hours before the culture supernatant was collected. The purification of 3-domain form of VCAM-1 from the culture supernatant was performed by one-step anion exchange chromatography. Protein concentration was determined by using Coomassie protein assay reagent (Pierce) according to the manufacture's instruction.
Preparation of Microtiter Plates:
Recombinant human VCAM-1 (extracellular domains 1-3) was dissolved at 0.5 μg/ml in PBS. […]
For `Cc1ccc(-c2ccc(C[C@H](NC(=O)C3CCCN(C(=O)c4ccccc4Cl)C3)C(=O)O)cc2)cc1` (stereo partly drawn) [Example 1.2, (2S)-2-({[1-(2-chlorobenzoyl)-3-piperidinyl]carbonyl}amino)-3-(4′-methyl[1,1′-biphenyl]-4-yl)propanoic acid], the IC50 was “C-D”.
`O=C(N[C@@H](Cc1ccc(-c2ccccc2)cc1)C(=O)O)C1CCCN(C(=O)Cc2ccccc2)C1` (some centres unmarked) [Example 1.7] was tested, and the IC50 was “C-D”.
`O=C(N[C@@H](Cc1ccc(-c2ccccc2)cc1)C(=O)O)C1CCCN(C(=O)c2cccc(Cl)c2)C1` (some centres unmarked) [Example 1.8] was tested, and the IC50 was “C-D”.
`Cc1ccc(C(=O)N2CCCC(C(=O)N[C@@H](Cc3ccc(-c4ccccc4)cc3)C(=O)O)C2)cc1` (some centres unmarked) [Example 1.9] was tested, and the IC50 was “C-D”.
`O=C(N[C@@H](Cc1ccc(-c2ccccc2)cc1)C(=O)O)C1CCCN(C(=O)c2ccc3c(c2)OCO3)C1` (some centres unmarked) [Example 1.10] was tested, and the IC50 was “C-D”.
In the case of `O=C(N[C@@H](Cc1ccc(-c2ccccc2)cc1)C(=O)O)C1CCCN(C(=O)C2CCCCC2)C1` (some centres unmarked) [Example 1.11], the IC50 is reported as “C-D”.
For `Cc1cc(Cl)c(CC(=O)N2CCCC(C(=O)N[C@@H](Cc3ccc(-c4ccccc4)cc3)C(=O)O)C2)c(Cl)c1` (some centres unmarked) [Example 1.12], the IC50 was “C-D”.
For `O=C(N[C@@H](Cc1ccc(-c2ccccc2)cc1)C(=O)O)C1CCCN(C(=O)c2ccccc2Cl)C1` (some centres unmarked) [Example 1.13], the IC50 was “C-D”.
`COc1ccccc1C(=O)N1CCCC(C(=O)N[C@@H](Cc2ccc(-c3ccccc3)cc2)C(=O)O)C1` (some centres unmarked) [Example 1.14] was tested, and the IC50 was “C-D”.
In the case of `Cc1cc(C)c(OC(=O)N2CCCC(C(=O)N[C@@H](Cc3ccc(-c4ccccc4)cc3)C(=O)O)C2)c(C)c1` (some centres unmarked) [Example 1.15], the IC50 is reported as “C-D”.
`Cc1ccc(-c2ccc(C[C@H](NC(=O)C3CCCN(C(=O)Cc4ccccc4)C3)C(=O)O)cc2)cc1` (some centres unmarked) [Example 1.17] was tested, and the IC50 was “C-D”.
`Cc1ccc(-c2ccc(C[C@H](NC(=O)C3CCCN(C(=O)c4cccc(Cl)c4)C3)C(=O)O)cc2)cc1` (some centres unmarked) [Example 1.18] was tested, and the IC50 was “C-D”.
For `Cc1ccc(C(=O)N2CCCC(C(=O)N[C@@H](Cc3ccc(-c4ccc(C)cc4)cc3)C(=O)O)C2)cc1` (some centres unmarked) [Example 1.19], the IC50 was “C-D”.
For `Cc1ccc(-c2ccc(C[C@H](NC(=O)C3CCCN(C(=O)c4ccc5c(c4)OCO5)C3)C(=O)O)cc2)cc1` (some centres unmarked) [Example 1.20], the IC50 was “C-D”.
In the case of `Cc1ccc(-c2ccc(C[C@H](NC(=O)C3CCCN(C(=O)C4CCCCC4)C3)C(=O)O)cc2)cc1` (some centres unmarked) [Example 1.21], the IC50 is reported as “C-D”.
With `Cc1ccc(-c2ccc(C[C@H](NC(=O)C3CCCN(C(=O)Cc4c(Cl)cc(Cl)cc4Cl)C3)C(=O)O)cc2)cc1` (some centres unmarked) [Example 1.22] the IC50 was “C-D”.
In the case of `Cc1ccc(-c2ccc(C[C@H](NC(=O)C3CCCN(C(=O)Oc4c(C)cc(C)cc4C)C3)C(=O)O)cc2)cc1` (some centres unmarked) [Example 1.23], the IC50 is reported as “C-D”.
For `COc1ccc(-c2ccc(C[C@H](NC(=O)C3CCCN(C(=O)C4CCCCC4)C3)C(=O)O)cc2)cc1` (some centres unmarked) [Example 1.24], the IC50 was “C-D”.
In the case of `COc1ccc(-c2ccc(C[C@H](NC(=O)C3CCCN(C(=O)Cc4c(Cl)cc(C)cc4Cl)C3)C(=O)O)cc2)cc1` (some centres unmarked) [Example 1.25], the IC50 is reported as “C-D”.
For `COc1ccc(-c2ccc(C[C@H](NC(=O)C3CCCN(C(=O)c4ccccc4OC)C3)C(=O)O)cc2)cc1` (some centres unmarked) [Example 1.27], the IC50 was “C-D”.
For `COc1ccc(-c2ccc(C[C@H](NC(=O)C3CCCN(C(=O)Oc4c(C)cc(C)cc4C)C3)C(=O)O)cc2)cc1` (some centres unmarked) [Example 1.28], the IC50 was “C-D”.
For `COc1ccc(-c2ccc(C[C@H](NC(=O)C3CCCN(C(=O)OC4CCCC4)C3)C(=O)O)cc2)cc1` (some centres unmarked) [Example 1.29], the IC50 was “C-D”.
With `Cc1ccccc1-c1ccc(C[C@H](NC(=O)C2CCCN(C(=O)Cc3ccccc3)C2)C(=O)O)cc1` (some centres unmarked) [Example 1.30] the IC50 was “C-D”.
With `Cc1ccccc1-c1ccc(C[C@H](NC(=O)C2CCCN(C(=O)c3ccc4c(c3)OCO4)C2)C(=O)O)cc1` (some centres unmarked) [Example 1.33] the IC50 was “C-D”.
In the case of `Cc1ccccc1-c1ccc(C[C@H](NC(=O)C2CCCN(C(=O)C3CCCCC3)C2)C(=O)O)cc1` (some centres unmarked) [Example 1.34], the IC50 is reported as “C-D”.
For `Cc1cc(Cl)c(CC(=O)N2CCCC(C(=O)N[C@@H](Cc3ccc(-c4ccccc4C)cc3)C(=O)O)C2)c(Cl)c1` (some centres unmarked) [Example 1.35], the IC50 was “C-D”.
In the case of `Cc1ccccc1-c1ccc(C[C@H](NC(=O)C2CCCN(C(=O)c3ccccc3Cl)C2)C(=O)O)cc1` (some centres unmarked) [Example 1.36], the IC50 is reported as “C-D”.
In the case of `Cc1cc(C)c(OC(=O)N2CCCC(C(=O)N[C@@H](Cc3ccc(-c4ccccc4C)cc3)C(=O)O)C2)c(C)c1` (some centres unmarked) [Example 1.38], the IC50 is reported as “C-D”.
With `O=C(N[C@@H](Cc1ccc(-c2ccc(Cl)cc2Cl)cc1)C(=O)O)C1CCCN(C(=O)Cc2ccccc2)C1` (some centres unmarked) [Example 1.40] the IC50 was “C-D”.
`O=C(N[C@@H](Cc1ccc(-c2ccc(Cl)cc2Cl)cc1)C(=O)O)C1CCCN(C(=O)c2cccc(Cl)c2)C1` (some centres unmarked) [Example 1.41] was tested, and the IC50 was “C-D”.

Same assay, conditions: adhesion of CFSE-labeled Jurkat cells to recombinant human VCAM-1 (domains 1-3) coated plates; compounds as yielded by solid phase synthesis, purity about 40-90%; read-out: IC50
`COc1ccccc1C(=O)N1CCCC(C(=O)N[C@@H](Cc2ccc(-c3cc(Cl)ccc3Cl)cc2)C(=O)O)C1` (stereo partly drawn) [Example 1.1, (2S)-3-(2′,5′-dichloro[1,1′-biphenyl]-4-yl)-2-({[1-(2-methoxybenzoyl)-3-piperidinyl]carbonyl}amino)propanoic acid] gave an IC50 of no more than 500 nM.
`Cc1ccccc1-c1ccc(C[C@H](NC(=O)C2CCCN(S(=O)(=O)c3c(Cl)cccc3Cl)C2)C(=O)O)cc1` (stereo partly drawn) [Example 1.3, (2S)-2-[({1-[(2,6-dichlorophenyl)sulfonyl]-3-piperidinyl}carbonyl)amino]-3-(2′-methyl[1,1′-biphenyl]-4-yl)propanoic acid] was tested, and the IC50 was 500 to 2000 nM.
In the case of `O=C(N[C@@H](Cc1ccc(-c2ccc(Cl)cc2Cl)cc1)C(=O)O)C1CCCN(C(=O)c2ccccc2Cl)C1` (stereo partly drawn) [Example 1.4, (2S)-2-({[1-(2-chlorobenzoyl)-3-piperidinyl]carbonyl}amino)-3-(2′,4′-dichloro[1,1′-biphenyl]-4-yl)propanoic acid], the IC50 is reported as 500 to 2000 nM.
`O=C(N[C@@H](Cc1ccc(-c2cc(Cl)ccc2Cl)cc1)C(=O)O)C1CCCN(C(=O)OC2CCCC2)C1` (stereo partly drawn) [Example 1.5, (2S)-2-[({1-[(cyclopentyloxy)carbonyl]-3-piperidinyl}carbonyl)amino]-3-(2′,5′-dichloro[1,1′-biphenyl]-4-yl)propanoic acid] was tested, and the IC50 was no more than 500 nM.
`O=C(N[C@@H](Cc1ccc(-c2cc(Cl)ccc2Cl)cc1)C(=O)O)C1CCCN(S(=O)(=O)Cc2ccccc2)C1` (some centres unmarked) [Example 1.6] was tested, and the IC50 was no more than 500 nM.
For `O=C(N[C@@H](Cc1ccc(-c2ccccc2)cc1)C(=O)O)C1CCCN(C(=O)OC2CCCC2)C1` (some centres unmarked) [Example 1.16], the IC50 was 2000 to 10000 nM.
Work on `COc1ccc(-c2ccc(C[C@H](NC(=O)C3CCCN(C(=O)c4ccccc4Cl)C3)C(=O)O)cc2)cc1` (some centres unmarked) [Example 1.26] yielded an IC50 of 500 to 2000 nM.
`Cc1ccccc1-c1ccc(C[C@H](NC(=O)C2CCCN(C(=O)c3cccc(Cl)c3)C2)C(=O)O)cc1` (some centres unmarked) [Example 1.31] was tested, and the IC50 was 2000 to 10000 nM.
`Cc1ccc(C(=O)N2CCCC(C(=O)N[C@@H](Cc3ccc(-c4ccccc4C)cc3)C(=O)O)C2)cc1` (some centres unmarked) [Example 1.32] showed an IC50 of 2000 to 10000 nM.
For `COc1ccccc1C(=O)N1CCCC(C(=O)N[C@@H](Cc2ccc(-c3ccccc3C)cc2)C(=O)O)C1` (some centres unmarked) [Example 1.37], the IC50 was 500 to 2000 nM.
Molecule `Cc1ccccc1-c1ccc(C[C@H](NC(=O)C2CCCN(C(=O)OC3CCCC3)C2)C(=O)O)cc1` (some centres unmarked) [Example 1.39] has an IC50 of 500 to 2000 nM.

Reference: patent publication US6794386B2, “β-amino acid compounds as integrin antagonists” (Bayer Aktiengesellschaft, priority 2000, dated 2004)
